Test results taken from patent US8673940B2, “Compounds for the treatment of diseases associated with amyloid or amyloid-like proteins” (AC Immune SA, priority 2006, dated 2014).
Where a name gives a salt, the structure may show the parent alone. Read-outs that look alike come from different tables or passages of the source.

Key:
[1] = target: T1, amyloid beta (Aβ) 1-42 peptide (Homo sapiens, UniProt P05067); assay: Thioflavin T spectrofluorescence assay, inhibition of Aβ1-42 aggregation; assay type: biochemical
T1 construct: amyloid beta (Aβ) 1-42 peptide; purchased Bachem
Procedure: A number of the small molecules were tested for their capacity to inhibit the aggregation of amyloid beta (Aβ) 1-42 peptide using a thioflavin T spectrofluorescence assay.
Aβ1-42 lyophilized powder (Bachem) was reconstituted in hexafluoroisopropanol (HFIP) to 1 mM. The peptide solution was sonicated for 15 min at room temperature, agitated overnight, and aliquots were placed into non-siliconized microcentrifuge tubes. The HFIP was then evaporated under a stream of argon. The resulting peptide film was dried under vacuum for 10 min, tightly sealed and stored at −80° C. until used.
To assay for the small molecule-mediated inhibition of Aβ1-42 aggregation, the small molecules were dissolved before each experiment in anhydrous dimethyl sulfoxide (DMSO, Sigma-Aldrich) to reach a concentration of 7.4 mM. Aβ1-42 peptide film was dissolved in DMSO to reach 400 μM. Assay solution in PBS buffer was prepared in non-siliconized incubation tubes to reach the following concentrations: 330 μM small molecule, 33 μM Aβ1-42, 10 μM thioflavin T (ThT), and 12.8% DMSO. Therefore, the final molar ratio of small molecule to Aβ1-42 was 10:1. A positive control without a small molecule was prepared to measure maximum RFU. A negative control without Aβ1-42 was prepared for each small molecule. 3-Aminopyrazole trimer (Trimer) was tested in all assays to ascertain reproducibility between independent experiments. The solutions were incubated for 24 hrs at 37° C., and the spectrofluorescence (relative fluorescence units; RFU) was read in six replicates in black 384-well assay plates (Perkin-Elmer) on a Perkin-Elmer FluoroCount spectrofluorometer. Inhibition of aggregation is expressed as mean % inhibition or ±1 standard deviation (SD) according to the following equation: […]
Cut-off criterium for the selection of functional molecules was defined at 50% inhibition capacity.
The small molecules were evaluated for their capacity to mediate inhibition of Aβ1-42 aggregation at a 10:1 small molecule to Aβ1-42 molar ratio. The results are expressed as mean±standard deviation of two independent experiments.

[2] = 330 μM small molecule, 33 μM Aβ1-42 (10:1 molar ratio), 24 hrs at 37° C., mean ± SD of two independent experiments, read-out: % inhibition

T1 sequence (P05067 672-713 limits assumed): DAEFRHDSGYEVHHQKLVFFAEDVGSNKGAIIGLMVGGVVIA

Structure (SMILES)	inhibition at 330 µM ([1]; 24 h)	melting point	also measured
Fc1ccc(-c2cc(NCc3cnc(NCc4ccccc4)s3)n[nH]2)cc1 [Compound 2k, N-Benzyl-5-((5-(4-fluorophenyl)-1H-pyrazol-3-ylamino)methyl)thiazol-2-amine dihydrochloride]	81.2 ± 7.3%		
CNc1ncc(CNc2nc(-c3ccc(Cl)cc3)cs2)s1 [Compound 2aa, 4-(4-Chlorophenyl)-N-((2-(methylamino)thiazol-5-yl)methyl)thiazol-2-amine dihydrochloride]	41.5 ± 9.6%		
Cc1ccc(-c2csc(NCc3cnc(Nc4ccccn4)s3)n2)cc1 (as salt: hydrochloride) [Compound 2z, N-(Pyridin-2-yl)-5-((4-p-tolylthiazol-2-ylamino)methyl)thiazol-2-amine trihydrochloride]		169 to 170 °C	
CCCNc1ncc(CNc2ncc(CNc3nc(-c4ccc(C)cc4)cs3)s2)s1 (as salt: hydrochloride) [Compound 2ad, N-Propyl-5-((5-((4-p-tolylthiazol-2-ylamino)methyl)thiazol-2-ylamino)methyl)thiazol-2-amine trihydrochloride]		> 135 °C (dec.)	
CNc1ncc(CNc2nc(-c3ccc(C)cc3)cs2)s1 (as salt: hydrochloride) [Compound 2n, N-Methyl-5-((4-p-tolylthiazol-2-ylamino)methyl)thiazol-2-amine dihydrochloride]		114 to 116 °C	
c1ccc(CNc2ncc(CNc3nc(-c4cccs4)cs3)s2)cc1 (as salt: hydrochloride) [Compound 2al, N-Benzyl-5-((4-(thiophen-2-yl)thiazol-2-ylamino)methyl)thiazol-2-amine dihydrochloride]		97 to 99 °C	
Cc1ccc(-c2cc(CNc3cc(CNc4cc(-c5ccc(C)cc5)[nH]n4)n[nH]3)n[nH]2)cc1 [Compound 2ai, 5-p-Tolyl-N-((5-((5-p-tolyl-1H-pyrazol-3-yl)methylamino)-1H-pyrazol-3-yl)methyl)-1H-pyrazol-3-amine trihydrochloride]	84.8%		
CNc1ncc(CNc2ncc(Cc3ccccc3)s2)s1 [Compound 2ah, 5-Benzyl-N-((2-(methylamino)thiazol-5-yl)methyl)thiazol-2-amine dihydrochloride]	35.7 ± 5.6%		
CNc1ncc(CNc2ncc(Cc3ccccc3)s2)s1 (as salt: hydrochloride) [Compound 2ah, 5-Benzyl-N-((2-(methylamino)thiazol-5-yl)methyl)thiazol-2-amine dihydrochloride]		76 to 77 °C	
CCCNc1ncc(CNc2ncc(CNc3nc(-c4ccc(C)cc4)cs3)s2)s1 [Compound 2ad, N-Propyl-5-((5-((4-p-tolylthiazol-2-ylamino)methyl)thiazol-2-ylamino)methyl)thiazol-2-amine trihydrochloride]	82.1 ± 2.2%		
CNc1ncc(CNc2nc(-c3ccc(Cl)cc3)cs2)s1 (as salt: hydrochloride) [Compound 2aa, 4-(4-Chlorophenyl)-N-((2-(methylamino)thiazol-5-yl)methyl)thiazol-2-amine dihydrochloride]		122 to 123 °C	
c1ccc(Nc2ncc(CNc3nccs3)s2)nc1 [Compound 2p, N-(Pyridin-2-yl)-5-((thiazol-2-ylamino)methyl)thiazol-2-amine trihydrochloride]	43.6 ± 2.1%		
Fc1ccc(NCc2ccc(NCc3ccccc3)nc2)nc1 [Compound 2q, N-Benzyl-5-((5-fluoropyridin-2-ylamino)methyl)pyridin-2-amine]			inhibition at 330 µM [1, 2]: 45 ± 8.3%
c1ccc(CNc2ncc(CNc3nc(Cc4ccccc4)cs3)s2)cc1 [Compound 2ae, 4-Benzyl-N-((2-(benzylamino)thiazol-5-yl)methyl)thiazol-2-amine dihydrochloride]	51.2 ± 1.5%		
Cc1ccc(-c2csc(NCc3cnc(NCc4ccccc4)s3)n2)cc1 (as salt: hydrochloride) [Compound 2j, N-Benzyl-5-((4-p-tolylthiazol-2-ylamino)methyl)thiazol-2-amine dihydrochloride]		106 to 108 °C	
Cc1ccc(-c2cnc(NCc3cnc(NCc4ccccc4)s3)s2)cc1 (as salt: hydrochloride) [Compound 2h, N-Benzyl-5-((5-p-tolylthiazol-2-ylamino)methyl)thiazol-2-amine dihydrochloride]		105 to 106 °C	
CNc1ncc(CNc2nccs2)s1 [Compound 2w, N-Methyl-5-((thiazol-2-ylamino)methyl)thiazole-2-amine dihydrochloride]	13.9 ± 12.9%		

Structure (SMILES)	inhibition at 330 µM ([1]; 24 h)	melting point	also measured
CCCCNc1cccc(CNc2cc(-c3ccc(F)cc3)[nH]n2)n1 [Compound 2am, N-Butyl-6-((5-(4-fluorophenyl)-1H-pyrazol-3-ylamino)methyl)pyridin-2-amine]		93 to 94 °C	
CNc1ncc(CNc2ncc(-c3ccc(C)cc3)s2)s1 [Compound 2o, N-Methyl-5-((5-p-tolylthiazol-2-ylamino)methyl)thiazol-2-amine dihydrochloride]	39.6 ± 2.8%		
Cc1ccc(-c2cc(CNc3cc(-c4ccc(C)cc4)[nH]n3)n[nH]2)cc1 [Compound 2a, 5-p-Tolyl-N-((5-p-tolyl-1H-pyrazol-3-yl)methyl)-1H-pyrazol-3-amine dihydrochloride]	65.3 ± 2.6%		
CNc1ncc(CNc2nc(Cc3ccccc3)cs2)s1 (as salt: hydrochloride) [Compound 2af, 4-Benzyl-N-((2-(methylamino)thiazol-5-yl)methyl)thiazol-2-amine dihydrochloride]		126 to 127 °C	
Fc1ccc(-c2cc(NCc3cnc(NCc4ccccc4)s3)n[nH]2)cc1 (as salt: hydrochloride) [Compound 2k, N-Benzyl-5-((5-(4-fluorophenyl)-1H-pyrazol-3-ylamino)methyl)thiazol-2-amine dihydrochloride]		78 to 80 °C	
Cc1ccc(-c2csc(NCc3cnc(NCc4ccccc4)s3)n2)cc1 [Compound 2j, N-Benzyl-5-((4-p-tolylthiazol-2-ylamino)methyl)thiazol-2-amine dihydrochloride]	70.7 ± 6.8%		
Cc1ccc(-c2csc(NCc3cnc(Nc4ccccn4)s3)n2)cc1 [Compound 2z, N-(Pyridin-2-yl)-5-((4-p-tolylthiazol-2-ylamino)methyl)thiazol-2-amine trihydrochloride]	58.7 ± 3%		
c1ccc(CNc2ncc(CNc3ncc(Cc4ccccc4)s3)s2)cc1 [Compound 2ag, 5-Benzyl-N-((2-(benzylamino)thiazol-5-yl)methyl)thiazol-2-amine dihydrochloride]	34.2 ± 1.6%		
c1ccc(CNc2ncc(CNc3ncc(Cc4ccccc4)s3)s2)cc1 (as salt: hydrochloride) [Compound 2ag, 5-Benzyl-N-((2-(benzylamino)thiazol-5-yl)methyl)thiazol-2-amine dihydrochloride]		96 to 97 °C	
Fc1ccc(-c2cc(CNc3cccc(NCc4ccccc4)n3)n[nH]2)cc1 [Compound 2s, N^2-benzyl-N^6-((5-(4-fluorophenyl)-1H-pyrazol-3-yl)methyl)pyridine-2,6-diamine]			inhibition at 330 µM [1, 2]: 55.1 ± 6.4%
Nc1cccc(NCc2ccc(NCc3ccccc3)nc2)n1 [Compound 2y, N^2-((6-(benzylamino)pyridin-3-yl)methyl)pyridine-2,6-diamine]			inhibition at 330 µM [1, 2]: 57 ± 15.9%
CNc1ncc(CNc2nc(Cc3ccccc3)cs2)s1 [Compound 2af, 4-Benzyl-N-((2-(methylamino)thiazol-5-yl)methyl)thiazol-2-amine dihydrochloride]	41.3 ± 9.2%		
Nc1cccc(NCc2ccc(NCc3ccccc3)nc2)n1 (as salt: hydrochloride) [Compound 2y, N^2-((6-(benzylamino)pyridin-3-yl)methyl)pyridine-2,6-diamine]		261 to 262 °C	
Cc1ccc(-c2cnc(NCc3cnc(NCc4ccccc4)s3)s2)cc1 [Compound 2h, N-Benzyl-5-((5-p-tolylthiazol-2-ylamino)methyl)thiazol-2-amine dihydrochloride]	31.9 ± 10.1%		
c1ccc(CNc2cccc(CNc3cc(-c4cccs4)[nH]n3)n2)cc1 [Compound 2ac, N-benzyl-6-((5-(thiophen-2-yl)-1H-pyrazol-3-ylamino)methyl)pyridin-2-amine]			inhibition at 330 µM [1, 2]: 78.5 ± 1.3%
CNc1ncc(CNc2nc(-c3ccc(C)cc3)cs2)s1 [Compound 2n, N-Methyl-5-((4-p-tolylthiazol-2-ylamino)methyl)thiazol-2-amine dihydrochloride]	27.8 ± 9.9%		
c1ccc(CNc2ncc(CNc3nc(-c4cccs4)cs3)s2)cc1 [Compound 2al, N-Benzyl-5-((4-(thiophen-2-yl)thiazol-2-ylamino)methyl)thiazol-2-amine dihydrochloride]	66.1 ± 15.4%		
